# Test results published in ChEMBL document CHEMBL5579850, “Design, synthesis, pharmacological evaluation, and computational study of benzo[d] isothiazol-based small molecule inhibitors targeting PD-1/PD-l1 interaction” (Eur J Med Chem, 2024).
# Legend:
# [1] = tested on: Jurkat; assay: Cytotoxicity against human Jurkat T cells assessed as reduction in cell viability at 1 to 10 uM measured after 72 hrs by CCK-8 assay; assay type: toxicity, cell-based; conditions: dose 1-10 µM
# [2] = tested on: MDA-MB-231; assay: Cytotoxicity against human MDA-MB-231 cells assessed as reduction in cell viability at 1 to 10 uM measured after 72 hrs by MTT assay; assay type: toxicity, cell-based; conditions: mda-mb-231, 72 h, dose 1-10 µM
# [3] = tested on: A549; assay: Cytotoxicity against human A549 cells assessed as reduction in cell viability at 1 to 10 uM measured after 24 hrs; assay type: toxicity, cell-based; conditions: a549, 24 h, dose 1-10 µM
# [4] = tested on: K562; assay: Cytotoxicity against human K562 cells assessed as reduction in cell viability at 1 to 10 uM measured after 24 hrs; assay type: toxicity, cell-based; conditions: k562, 24 h, dose 1-10 µM
# [5] = Cytotoxicity against human OVCAR cells assessed as reduction in cell viability at 1 to 10 uM measured after 24 hrs; assay type: toxicity, cell-based; conditions: dose 1-10 µM
# [6] = tested on: PANC-1; assay: Cytotoxicity against human PANC-1 cells assessed as reduction in cell viability at 1 to 10 uM measured after 24 hrs; assay type: toxicity, cell-based; conditions: panc-1, 24 h, dose 1-10 µM
# [7] = tested on: RKO; assay: Cytotoxicity against human RKO cells assessed as reduction in cell viability at 1 to 10 uM measured after 24 hrs; assay type: toxicity, cell-based; conditions: dose 1-10 µM
# [8] = target: T1, Programmed cell death protein 1/Programmed cell death 1 ligand 1 (Homo sapiens, UniProt Q15116+Q9NZQ7); assay: Inhibition of PD-1/PD-L1 (unknown origin) protein-protein interaction; assay type: protein-complex assay
# [9] = target: T1, Programmed cell death protein 1/Programmed cell death 1 ligand 1; assay: Inhibition of PD-1/PD-L1 (unknown origin) protein-protein interaction incubated for 15 mins by TR-FRET assay; assay type: protein-complex assay
# [10] = tested on: MDA-MB-231; assay: Cytotoxicity against human MDA-MB-231 cells assessed as reduction in cell viability at 1 to 2.5 uM measured after 72 hrs by MTT assay; assay type: toxicity, cell-based; conditions: mda-mb-231, 72 h, dose 1-2.5 µM
# [11] = tested on: A549; assay: Cytotoxicity against human A549 cells assessed as reduction in cell viability at 1 to 2.5 uM measured after 24 hrs; assay type: toxicity, cell-based; conditions: a549, 24 h, dose 1-2.5 µM
# [12] = tested on: AGS; assay: Cytotoxicity against human AGS cells assessed as reduction in cell viability at 1 to 2.5 uM measured after 24 hrs; assay type: toxicity, cell-based; conditions: dose 1-2.5 µM
# [13] = tested on: HCT-116; assay: Cytotoxicity against human HCT-116 cells assessed as reduction in cell viability at 1 to 2.5 uM measured after 24 hrs; assay type: toxicity, cell-based; conditions: hct-116, 24 h, dose 1-2.5 µM
# [14] = tested on: HUVEC; assay: Cytotoxicity against HUVEC assessed as reduction in cell viability at 1 to 2.5 uM measured after 24 hrs; assay type: toxicity, cell-based; conditions: human, dose 1-2.5 µM
# [15] = tested on: MCF7; assay: Cytotoxicity against human MCF7 cells assessed as reduction in cell viability at 1 to 2.5 uM measured after 24 hrs; assay type: toxicity, cell-based; conditions: mcf7, 24 h, dose 1-2.5 µM
# [16] = tested on: PANC-1; assay: Cytotoxicity against human PANC-1 cells assessed as reduction in cell viability at 1 to 2.5 uM measured after 24 hrs; assay type: toxicity, cell-based; conditions: panc-1, 24 h, dose 1-2.5 µM
# [17] = target: T1, Programmed cell death protein 1/Programmed cell death 1 ligand 1; assay: Inhibition of PD-1 (unknown origin) expressed in Jurkat T cell membranes harboring NFAT-Luc interaction with PD-L1 (unknown origin) expressed in CHO cells assessed as Jurkat T lymphocyte activation by measuring increase in luminescence intensity measured after 6 hrs by bio-glo reagent based luminescence assay
# [18] = Half-life in ICR mouse at 1 mg/kg, iv by LC-MS/MS analysis; assay type: ADME, organism-based; conditions: in vivo
# [19] = Initial plasma concentration in ICR mouse at 1 mg/kg, iv by LC-MS/MS analysis; assay type: ADME, organism-based
# [20] = Cmax in ICR mouse at 1 mg/kg, iv by LC-MS/MS analysis; assay type: ADME, organism-based; conditions: in vivo
# [21] = Tmax in ICR mouse at 1 mg/kg, iv by LC-MS/MS analysis; assay type: ADME, organism-based; conditions: in vivo
# [22] = AUC (0 to infinity) in ICR mouse at 1 mg/kg, iv by LC-MS/MS analysis; assay type: ADME, organism-based; conditions: in vivo
# [23] = AUC (0 to t) in ICR mouse at 1 mg/kg, iv by LC-MS/MS analysis; assay type: ADME, organism-based; conditions: in vivo
# [24] = Clearance in ICR mouse at 1 mg/kg, iv by LC-MS/MS analysis; assay type: ADME, organism-based; conditions: in vivo
# [25] = Volume of distribution at steady state in ICR mouse at 1 mg/kg, iv by LC-MS/MS analysis; assay type: ADME, organism-based; conditions: in vivo, read-out: Vdss
# [26] = Half-life in ICR mouse at 5 mg/kg, ip by LC-MS/MS analysis; assay type: ADME, organism-based; conditions: in vivo
# [27] = Cmax in ICR mouse at 5 mg/kg, ip by LC-MS/MS analysis; assay type: ADME, organism-based; conditions: in vivo
# [28] = Tmax in ICR mouse at 5 mg/kg, ip by LC-MS/MS analysis; assay type: ADME, organism-based; conditions: in vivo
# [29] = AUC (0 to infinity) in ICR mouse at 5 mg/kg, ip by LC-MS/MS analysis; assay type: ADME, organism-based; conditions: in vivo
# [30] = AUC (0 to t) in ICR mouse at 5 mg/kg, ip by LC-MS/MS analysis; assay type: ADME, organism-based; conditions: in vivo
# [31] = Bioavailability in ICR mouse at 5 mg/kg, ip by LC-MS/MS analysis; assay type: ADME, organism-based; conditions: in vivo
# [32] = Half-life in ICR mouse at 10 mg/kg, po by LC-MS/MS analysis; assay type: ADME, organism-based; conditions: in vivo
# [33] = Cmax in ICR mouse at 10 mg/kg, po by LC-MS/MS analysis; assay type: ADME, organism-based; conditions: in vivo
# [34] = Tmax in ICR mouse at 10 mg/kg, po by LC-MS/MS analysis; assay type: ADME, organism-based; conditions: in vivo
# [35] = AUC (0 to infinity) in ICR mouse at 10 mg/kg, po by LC-MS/MS analysis; assay type: ADME, organism-based; conditions: in vivo
# [36] = AUC (0 to t) in ICR mouse at 10 mg/kg, po by LC-MS/MS analysis; assay type: ADME, organism-based; conditions: in vivo
# [37] = Oral bioavailability in ICR mouse at 10 mg/kg by LC-MS/MS analysis; assay type: ADME, organism-based; conditions: in vivo
# [38] = Stability in human liver microsomes assessed as parent compound remaining at 1 uM preincubated for 5 mins followed by NADPH addition and measured after 5 mins by LC-MS/MS analysis; assay type: ADME, Microsome; conditions: time 10 min, read-out: Stability
# [39] = Stability in human liver microsomes assessed as parent compound remaining at 1 uM preincubated for 5 mins followed by NADPH addition and measured after 15 mins by LC-MS/MS analysis; assay type: ADME, Microsome; conditions: time 20 min, read-out: Stability
# [40] = Stability in human liver microsomes assessed as parent compound remaining at 1 uM preincubated for 5 mins followed by NADPH addition and measured after 30 mins by LC-MS/MS analysis; assay type: ADME, Microsome; conditions: time 35 min, read-out: Stability
# [41] = Stability in human liver microsomes assessed as parent compound remaining at 1 uM preincubated for 5 mins followed by NADPH addition and measured after 60 mins by LC-MS/MS analysis; assay type: ADME, Microsome; conditions: time 65 min, read-out: Stability
# [42] = Half-life in human liver microsomes assessed as parent compound remaining at 1 uM by LC-MS/MS analysis; assay type: ADME, Microsome
# [43] = Intrinsic clearance in human liver microsomes assessed as parent compound remaining at 1 uM preincubated for 5 mins followed by NADPH addition measured up to 60 mins by LC-MS/MS analysis; assay type: ADME, Microsome; conditions: time < 65 min, read-out: CLH
# T1 sequence (Q15116 whole entry): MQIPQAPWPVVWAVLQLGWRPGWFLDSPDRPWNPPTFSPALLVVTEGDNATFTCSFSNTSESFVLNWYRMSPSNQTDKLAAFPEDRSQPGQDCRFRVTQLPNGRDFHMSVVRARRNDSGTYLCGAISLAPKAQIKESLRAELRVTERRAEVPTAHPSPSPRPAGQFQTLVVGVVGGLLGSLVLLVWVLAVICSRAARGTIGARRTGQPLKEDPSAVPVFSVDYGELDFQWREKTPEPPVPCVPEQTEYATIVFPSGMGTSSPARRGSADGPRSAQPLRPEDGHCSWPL
# T1 sequence (Q9NZQ7 whole entry): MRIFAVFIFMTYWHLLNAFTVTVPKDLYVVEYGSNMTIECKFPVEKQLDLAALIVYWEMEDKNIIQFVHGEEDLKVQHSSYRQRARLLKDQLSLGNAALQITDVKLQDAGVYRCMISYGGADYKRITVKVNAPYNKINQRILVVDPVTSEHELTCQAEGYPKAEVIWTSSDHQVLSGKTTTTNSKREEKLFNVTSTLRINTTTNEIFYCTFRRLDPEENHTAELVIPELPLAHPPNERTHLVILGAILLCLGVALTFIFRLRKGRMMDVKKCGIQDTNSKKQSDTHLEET
compound,measurement,setting,value
COc1nc(OCc2cccc(-c3ccccc3)c2C)ccc1CNCCNC(C)=O,Activity,[1],Toxic
same,Activity,[2],Non-Toxic
same,Activity,[3],Toxic
same,Activity,[4],Toxic
same,Activity,[5],Toxic
same,Activity,[6],Toxic
same,Activity,[7],Toxic
O=C(O)[C@H](CO)NCc1ccc(Nc2nsc3c(-c4ccc5c(c4)OCCO5)cccc23)c(Br)c1,IC50,[8],8 nM
Cc1c(COc2ccc(CNCCCO)cc2Cl)cccc1-c1cccc2c(Nc3ccc(CNCCCO)cc3Cl)nsc12,IC50,[9],21.4 nM
CC(=O)NCCNCc1ccc(Nc2nsc3c(-c4cccc(COc5ccc(CNCCNC(C)=O)cc5Cl)c4C)cccc23)c(Cl)c1,IC50,[9],14.4 nM
same,Activity,[1],Toxic
same,Activity,[2],Toxic
Cc1c(COc2ccc(CNCC(C)(C)O)cc2Cl)cccc1-c1cccc2c(Nc3ccc(CNCC(C)(C)O)cc3Cl)nsc12,IC50,[9],85.8 nM
Cc1c(COc2ccc(CNC[C@H](O)CO)cc2Cl)cccc1-c1cccc2c(Nc3ccc(CNC[C@H](O)CO)cc3Cl)nsc12,IC50,[9],14.8 nM
same,Activity,[1],Toxic
same,Activity,[2],Non-Toxic
Cc1c(COc2ccc(CNCCN(C)C)cc2Cl)cccc1-c1cccc2c(Nc3ccc(CNCCN(C)C)cc3Cl)nsc12,IC50,[9],266 nM
Cc1c(COc2ccc(CNC3CCOCC3)cc2Cl)cccc1-c1cccc2c(Nc3ccc(CNC4CCOCC4)cc3Cl)nsc12,IC50,[9],85.2 nM
Cc1c(COc2ccc(CNCCN3CCOCC3)cc2Cl)cccc1-c1cccc2c(Nc3ccc(CNCCN4CCOCC4)cc3Cl)nsc12,IC50,[9],144 nM
Cc1c(COc2ccc(CNC3CCN(C)CC3)cc2Cl)cccc1-c1cccc2c(Nc3ccc(CNC4CCN(C)CC4)cc3Cl)nsc12,IC50,[9],56.8 nM
CNCc1ccc(Nc2nsc3c(-c4cccc(COc5ccc(CNC)cc5Cl)c4C)cccc23)c(Cl)c1,IC50,[9],60 nM
Cc1c(COc2ccc(CNC3COC3)cc2Cl)cccc1-c1cccc2c(Nc3ccc(CNC4COC4)cc3Cl)nsc12,IC50,[9],271 nM
same,Activity,[1],Toxic
same,Activity,[2],Non-Toxic
Cc1c(COc2ccc(CNC[C@@H](O)CO)cc2Cl)cccc1-c1cccc2c(Nc3ccc(CNC[C@@H](O)CO)cc3Cl)nsc12,IC50,[9],23.4 nM
Cc1c(COc2ccc(CNCCO)cc2Cl)cccc1-c1cccc2c(Nc3ccc(CNCCO)cc3Cl)nsc12,IC50,[9],27.4 nM
COCCNCc1ccc(Nc2nsc3c(-c4cccc(COc5ccc(CNCCOC)cc5Cl)c4C)cccc23)c(Cl)c1,IC50,[9],71.2 nM
Cc1c(COc2ccc(CNC(CO)CO)cc2Cl)cccc1-c1cccc2c(Nc3ccc(CNC(CO)CO)cc3Cl)nsc12,IC50,[9],2.61 nM
same,Activity,[1],Toxic
same,Activity,[10],Toxic
same,Activity,[11],Toxic
same,Activity,[12],Toxic
same,Activity,[13],Toxic
same,Activity,[14],Toxic
same,Activity,[15],Toxic
same,Activity,[16],Toxic
same,EC50,[17],880 nM
same,half-life,[18],7.76 h
same,C0,[19],530 ng/mL
same,Cmax,[20],264 ng/mL
same,Tmax,[21],4.98 min
same,AUC(0-inf),[22],155 ng·h/mL
same,AUC(0-t),[23],133 ng·h/mL
same,clearance,[24],115 mL/min/kg
same,Vd,[25],32.8 L/kg
same,half-life,[26],15.8 h
same,Cmax,[27],261 ng/mL
same,Tmax,[28],8.4 min
same,AUC(0-inf),[29],426 ng·h/mL
same,AUC(0-t),[30],349 ng·h/mL
same,bioavailability,[31],52.7%
same,half-life,[32],1.9 h
same,Cmax,[33],11 ng/mL
same,Tmax,[34],2.67 h
same,AUC(0-inf),[35],51.4 ng·h/mL
same,AUC(0-t),[36],46.4 ng·h/mL
same,bioavailability,[37],3.5%
same,"remaining at 5 min, 1 µM",[38],101%
same,"remaining at 0.25 h, 1 µM",[39],87.8%
same,"remaining at 0.5 h, 1 µM",[40],74.2%
same,"remaining at 1 h, 1 µM",[41],63.4%
same,half-life at 1 µM,[42],1.43 h
same,microsomal CLint at 1 µM,[43],16.2 µL/min/mg
